Source: patent publication US8569281B2, “Compounds and their administration for treating a neurodegenerative disease as well as a method for identifying a compound capable of inhibiting a kinase, such as LRRK” (Medical Research Council Technology, priority 2010, dated 2013)

molecular target: LRRK2 (Homo sapiens (Human), UniProt Q5S007); test: In Vitro LRRK2 Assay (LabChip 3000, fluorescently-labeled peptide substrate); format: biochemical; settings: ATP 130 μM, substrate 1 μM, 2 hours, ambient temperature; LRRK2 variant not given; read-out: Ki (μM), affinity values for LRRK2
Sequence (Q5S007 whole entry G2019S): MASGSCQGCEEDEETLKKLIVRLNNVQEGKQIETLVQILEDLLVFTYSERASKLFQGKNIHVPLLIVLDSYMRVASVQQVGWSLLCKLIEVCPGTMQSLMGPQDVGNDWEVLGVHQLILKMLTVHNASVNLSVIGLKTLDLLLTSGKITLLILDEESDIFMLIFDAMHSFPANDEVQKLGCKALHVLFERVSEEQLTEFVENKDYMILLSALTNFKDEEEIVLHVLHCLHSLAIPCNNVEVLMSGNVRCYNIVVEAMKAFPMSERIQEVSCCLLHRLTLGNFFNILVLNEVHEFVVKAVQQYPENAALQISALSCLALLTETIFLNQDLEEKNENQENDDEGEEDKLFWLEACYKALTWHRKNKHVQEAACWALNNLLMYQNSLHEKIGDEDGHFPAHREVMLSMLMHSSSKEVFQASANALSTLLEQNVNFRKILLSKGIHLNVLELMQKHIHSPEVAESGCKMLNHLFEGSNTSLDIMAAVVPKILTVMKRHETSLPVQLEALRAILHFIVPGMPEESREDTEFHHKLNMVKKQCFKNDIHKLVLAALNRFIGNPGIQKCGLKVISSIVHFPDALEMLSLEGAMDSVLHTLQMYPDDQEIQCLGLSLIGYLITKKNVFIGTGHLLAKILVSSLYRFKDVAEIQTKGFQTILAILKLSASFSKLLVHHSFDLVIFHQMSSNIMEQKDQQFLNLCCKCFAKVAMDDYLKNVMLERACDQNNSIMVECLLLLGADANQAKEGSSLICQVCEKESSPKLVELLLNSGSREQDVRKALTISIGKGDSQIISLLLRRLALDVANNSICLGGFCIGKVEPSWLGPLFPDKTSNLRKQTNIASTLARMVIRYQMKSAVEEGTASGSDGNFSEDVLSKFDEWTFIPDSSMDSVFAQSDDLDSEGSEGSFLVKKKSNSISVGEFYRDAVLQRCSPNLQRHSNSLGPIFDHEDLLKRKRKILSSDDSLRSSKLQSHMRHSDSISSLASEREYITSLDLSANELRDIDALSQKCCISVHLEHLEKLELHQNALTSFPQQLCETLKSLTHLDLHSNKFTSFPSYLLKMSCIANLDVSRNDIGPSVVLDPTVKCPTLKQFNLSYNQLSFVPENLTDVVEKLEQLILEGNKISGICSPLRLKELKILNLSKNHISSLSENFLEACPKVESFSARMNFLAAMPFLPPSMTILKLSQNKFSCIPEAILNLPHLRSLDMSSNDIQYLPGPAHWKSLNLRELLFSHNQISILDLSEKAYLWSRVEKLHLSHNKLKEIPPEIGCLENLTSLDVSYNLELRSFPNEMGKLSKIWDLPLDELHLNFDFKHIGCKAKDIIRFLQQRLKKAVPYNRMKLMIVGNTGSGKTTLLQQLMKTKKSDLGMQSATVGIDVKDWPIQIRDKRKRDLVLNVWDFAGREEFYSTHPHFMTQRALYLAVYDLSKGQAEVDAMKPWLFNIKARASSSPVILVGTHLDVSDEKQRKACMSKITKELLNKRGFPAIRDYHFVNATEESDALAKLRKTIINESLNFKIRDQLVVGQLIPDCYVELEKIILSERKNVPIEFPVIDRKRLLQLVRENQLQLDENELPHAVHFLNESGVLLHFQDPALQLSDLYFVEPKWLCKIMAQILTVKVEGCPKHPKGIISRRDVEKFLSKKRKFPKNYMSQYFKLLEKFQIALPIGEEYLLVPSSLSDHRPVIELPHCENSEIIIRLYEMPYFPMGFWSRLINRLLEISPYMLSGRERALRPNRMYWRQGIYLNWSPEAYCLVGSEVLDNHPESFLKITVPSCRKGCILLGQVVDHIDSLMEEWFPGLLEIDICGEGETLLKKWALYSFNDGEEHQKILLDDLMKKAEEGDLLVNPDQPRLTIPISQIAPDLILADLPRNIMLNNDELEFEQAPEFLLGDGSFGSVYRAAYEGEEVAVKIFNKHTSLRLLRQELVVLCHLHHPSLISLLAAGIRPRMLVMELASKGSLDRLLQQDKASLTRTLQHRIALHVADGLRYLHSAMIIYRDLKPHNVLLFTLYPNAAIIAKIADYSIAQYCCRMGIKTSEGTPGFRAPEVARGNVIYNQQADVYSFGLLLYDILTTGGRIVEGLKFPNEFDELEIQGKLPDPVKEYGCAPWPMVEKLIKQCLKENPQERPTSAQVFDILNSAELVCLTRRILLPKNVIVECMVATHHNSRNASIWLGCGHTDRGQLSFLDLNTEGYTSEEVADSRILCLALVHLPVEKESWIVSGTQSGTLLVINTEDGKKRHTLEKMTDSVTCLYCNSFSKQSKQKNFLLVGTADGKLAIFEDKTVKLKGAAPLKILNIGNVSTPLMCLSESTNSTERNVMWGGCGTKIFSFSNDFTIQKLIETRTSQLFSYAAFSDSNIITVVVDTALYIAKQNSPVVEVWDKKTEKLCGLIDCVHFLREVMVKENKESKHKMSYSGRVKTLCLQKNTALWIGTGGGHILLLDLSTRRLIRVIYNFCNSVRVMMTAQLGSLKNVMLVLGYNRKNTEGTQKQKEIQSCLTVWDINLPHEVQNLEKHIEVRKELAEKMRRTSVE
Experimental: This assay was used to determine a compound's potency in inhibiting activity of LRRK2 by determining, Kiapp, IC50, or percent inhibition values. In a polypropylene plate, LRRK2, fluorescently-labeled peptide substrate, ATP and test compound were incubated together. Using a LabChip 3000 (Caliper Life Sciences), after the reaction the substrate was separated by capillary electrophoresis into two populations: phosphorylated and unphosphorylated. The relative amounts of each were quantitated by fluorescence intensity. LRRK2 Ki was determined according to the equation: Y=V0*(1−((x+Ki*(1+S/Km)+Et)/(2*Et)−(((x+Ki*(1+S/Km)+Et)^2−(4*Et*x))^0.5)/(2*Et))).
Ki values in Table 4 and elsewhere herein are shown in μM.
Assay conditions and materials used were as follows:
Compound Plate Preparation:
For serial dilutions, 34.6 μl DMSO was added to columns 3-24.
Total and Blank Preparation:
In Complete Reaction Buffer, substrate was diluted to 4 μM. Equal volumes of Complete Reaction Buffer and 4 μM substrate were combined to obtain the blank. Equal volumes of Complete Reaction Buffer and 4 μM substrate were combined and to the combined solution was added 2× final LRRK2 concentration.
To a 50 μl polypropylene plate, 5 μl/well buffer/substrate was added by hand to Blank wells. A Biomek FX was used to start the kinase reaction (“PLK SAR 23 ATP”). The following were added to the appropriate wells: • 2 μl compound+23 μl ATP; • 5 μl/well compound/ATP in Assay Plate; • 5 μl/well kinase/substrate in Assay Plate;
The plate was incubated for 2 hours in the dark. Biomek FX was used to stop the kinase reaction (“PLK Stop”), and 10 μl/well Stop solution was added to the Assay Plate. Results were read on the LabChip 3000.
The LabChip 3000 was run using the job “LRRK2 IC50” with the following job settings: • Pressure: −1.4 psi • Downstream voltage: −500 V • Upstream voltage: −2350 V • Post sample buffer sip time: 75 seconds • Post dye buffer sip time: 75 seconds • Final delay time: 200 seconds Parkinson's Disease Animal Model

In order of falling Ki:
1. Cc1n[nH]c2ccnc(OC3CCCC3)c12 [Example 196, 4-(cyclopentyloxy)-3-methyl-1H-pyrazolo[4,3-c]pyridine]  0.858 µM
2. CN1CCc2c(-c3n[nH]c4ccnc(OC5CCOCC5)c34)cccc21 [Example 157, 3-(1-Methylindolin-4-yl)-4-(tetrahydro-2H-pyran-4-yloxy)-1H-pyrazolo[4,3-c]pyridine]  0.495 µM
3. c1cc(-c2n[nH]c3ccnc(OC4CCOCC4)c23)c2cc[nH]c2c1 [Example 158, 3-(1H-Indol-4-yl)-4-(tetrahydro-2H-pyran-4-yloxy)-1H-pyrazolo[4,3-c]pyridine]  0.448 µM
4. O=C1OCCN1CCOc1nccc2[nH]nc(-c3ccnc(N4CCOCC4)c3)c12 [Example 179, 3-(2-(3-(2-morpholinopyridin-4-yl)-1H-pyrazolo[4,3-c]pyridin-4-yloxy)ethyl)oxazolidin-2-one]  0.354 µM
5. CC(C)n1cc(-c2n[nH]c3ccnc(OCCN4CCOC4=O)c23)cn1 [Example 182, 3-(2-(3-(1-isopropyl-1H-pyrazol-4-yl)-1H-pyrazolo[4,3-c]pyridin-4-yloxy)ethyl)oxazolidin-2-one]  0.323 µM
6. Cc1[nH]nc2cc(C3CC3)nc(OC3CCCCC3)c12 [Example 148, 4-(Cyclohexyloxy)-6-cyclopropyl-3-methyl-1H-pyrazolo[4,3-c]pyridine]  0.271 µM
7. N#Cc1cncc(-c2n[nH]c3ccnc(OC4CCOCC4)c23)c1 [Example 156]  0.172 µM
8. c1cc(Nc2[nH]nc3ccnc(OC4CCOCC4)c23)ccn1 [Example 163, N-(Pyridin-4-yl)-4-(tetrahydro-2H-pyran-4-yloxy)-1H-pyrazolo[4,3-c]pyridin-3-amine]  0.165 µM
9. CNC(=O)c1cccc(-c2[nH]nc3cc(C)nc(OC4CCOCC4)c23)c1 [Example 171, N-methyl-3-(6-methyl-4-(tetrahydro-2H-pyran-4-yloxy)-1H-pyrazolo[4,3-c]pyridin-3-yl)benzamide]  0.154 µM
10. N#Cc1cc(-c2n[nH]c3ccnc(OC4CCOCC4)c23)ccn1 [Example 174, 4-(4-(tetrahydro-2H-pyran-4-yloxy)-1H-pyrazolo[4,3-c]pyridin-3-yl)picolinonitrile]  0.13 µM
11. Cc1n[nH]c2ccnc(NC3CCOCC3)c12 [Example 188, 3-methyl-N-(tetrahydro-2H-pyran-4-yl)-1H-pyrazolo[4,3-c]pyridin-4-amine]  0.13 µM
12. c1cc(CN2CCOCC2)cc(-c2[nH]nc3ccnc(OC4CCOCC4)c23)c1 [Example 161, 4-(3-(4-(Tetrahydro-2H-pyran-4-yloxy)-1H-pyrazolo[4,3-c]pyridin-3-yl)benzyl)morpholine]  0.107 µM
13. COC(=O)c1[nH]nc2ccnc(NC3CCOCC3)c12 [Example 185, methyl 4-(tetrahydro-2H-pyran-4-ylamino)-1H-pyrazolo[4,3-c]pyridine-3-carboxylate]  0.1 µM
14. COc1nccc2n[nH]c(-c3ccc(S(C)(=O)=O)cc3)c12 [Example 173, 4-methoxy-3-(4-(methylsulfonyl)phenyl)-1H-pyrazolo[4,3-c] pyridine]  0.09 µM
15. CC(C)NC(=O)c1cccc(-c2[nH]nc3ccnc(OC4CCOCC4)c23)c1 [Example 154, N-Isopropyl-3-(4-(tetrahydro-2H-pyran-4-yloxy)-1H-pyrazolo[4,3-c]pyridin-3-yl)benzamide]  0.0784 µM
16. CN(C)c1cccc(-c2[nH]nc3ccnc(OC4CCOCC4)c23)c1 [Example 153, N,N-Dimethyl-3-(4-(tetrahydro-2H-pyran-4-yloxy)-1H-pyrazolo[4,3-c]pyridin-3-yl)aniline]  0.05 µM
17. c1ncc(-c2cc(-c3n[nH]c4ccnc(OC5CCOCC5)c34)ccn2)cn1 [Example 199, 3-(2-(pyrimidin-5-yl)pyridin-4-yl)-4-(tetrahydro-2H-pyran-4-yloxy)-1H-pyrazolo[4,3-c]pyridine]  0.046 µM
18. COc1nccc2n[nH]c(-c3cccc(S(C)(=O)=O)c3)c12 [Example 167, 4-Methoxy-3-(3-(methylsulfonyl)phenyl)-1H-pyrazolo[4,3-c]pyridine]  0.045 µM
19. COc1cc(Nc2[nH]nc3ccnc(OC4CCOCC4)c23)ccn1 [Example 162, N-(2-methoxypyridin-4-yl)-4-(tetrahydro-2H-pyran-4-yloxy)-1H-pyrazolo[4,3-c]pyridin-3-amine]  0.04 µM
20. Cc1cc2[nH]nc(-c3ccnc(N4CCOCC4)c3)c2c(OC2CCOCC2)n1 [Example 172, 4-(4-(6-methyl-4-(tetrahydro-2H-pyran-4-yloxy)-1H-pyrazolo[4,3-c]pyridin-3-yl)pyridin-2-yl)morpholine]  0.035 µM
21. COc1nccc2[nH]nc(-c3cnn(C4CCOCC4)c3)c12 [Example 184, 4-methoxy-3-(1-(tetrahydro-2H-pyran-4-yl)-1H-pyrazol-4-yl)-1H-pyrazolo[4,3-c]pyridine]  0.033 µM
22. CC(C)n1cc(Nc2[nH]nc3ccnc(OC4CCOCC4)c23)cn1 [Example 164, N-(1-Isopropyl-1H-pyrazol-4-yl)-4-(tetrahydro-2H-pyran-4-yloxy)-1H-pyrazolo[4,3-c]pyridin-3-amine]  0.03 µM
23. CS(=O)(=O)c1cccc(-c2[nH]nc3ccnc(OC4CCOCC4)c23)c1 [Example 165, 3-(3-(Methylsulfonyl)phenyl)-4-(tetrahydro-2H-pyran-4-yloxy)-1H-pyrazolo[4,3-c]pyridine]  0.029 µM
24. O=C(NC1CC1)c1cccc(-c2[nH]nc3ccnc(OC4CCOCC4)c23)c1 [Example 155, N-Cyclopropyl-3-(4-(tetrahydro-2H-pyran-4-yloxy)-1H-pyrazolo[4,3-c]pyridin-3-yl)benzamide]  0.027 µM
25. c1cc(-c2cc(-c3n[nH]c4ccnc(OC5CCOCC5)c34)ccn2)ccn1 [Example 198, 3-(2,4′-bipyridin-4-yl)-4-(tetrahydro-2H-pyran-4-yloxy)-1H-pyrazolo[4,3-c]pyridine]  0.026 µM
26. CNC(=O)c1cccc(-c2n[nH]c3ccnc(OC4CCOCC4)c23)c1 [Example 160, N-Methyl-3-(4-(tetrahydro-2H-pyran-4-yloxy)-1H-pyrazolo[4,3-c]pyridin-3-yl)benzamide]  0.025 µM
27. N#Cc1ccc(-c2cc(-c3n[nH]c4ccnc(OC5CCOCC5)c34)ccn2)cc1 [Example 202, 4-(4-(4-(tetrahydro-2H-pyran-4-yloxy)-1H-pyrazolo[4,3-c]pyridin-3-yl)pyridin-2-yl) benzonitrile]  0.025 µM
28. COCCOc1nccc2[nH]nc(-c3ccnc(N4CCOCC4)c3)c12 [Example 178, 4-(4-(4-(2-methoxyethoxy)-1H-pyrazolo[4,3-c]pyridin-3-yl)pyridin-2-yl) morpholine]  0.023 µM
29. c1cncc(-c2cc(-c3n[nH]c4ccnc(OC5CCOCC5)c34)ccn2)c1 [Example 197, 3-(2,3′-bipyridin-4-yl)-4-(tetrahydro-2H-pyran-4-yloxy)-1H-pyrazolo[4,3-c]pyridine]  0.021 µM
30. N#CCc1cccc(-c2[nH]nc3ccnc(OC4CCOCC4)c23)c1 [Example 151, 2-(3-(4-(Tetrahydro-2H-pyran-4-yloxy)-1H-pyrazolo[4,3-c]pyridin-3-yl)phenyl)acetonitrile]  0.017 µM
31. CC(Oc1nccc2[nH]nc(-c3ccnc(N4CCOCC4)c3)c12)C(F)(F)F (stereo not drawn) [Example 177, 4-(4-(4-(1,1,1-trifluoropropan-2-yloxy)-1H-pyrazolo[4,3-c]pyridin-3-yl)pyridin-2-yl)morpholine]  0.016 µM
32. c1cc2[nH]nc(-c3cnn(C4CCOCC4)c3)c2c(OC2CCOCC2)n1 [Example 186, 3-(1-(tetrahydro-2H-pyran-4-yl)-1H-pyrazol-4-yl)-4-(tetrahydro-2H-pyran-4-yloxy)-1H-pyrazolo[4,3-c]pyridine]  0.013 µM
33. c1cc(-c2n[nH]c3ccnc(OC4CCOC4)c23)cc(N2CCOCC2)n1 (stereo not drawn) [Example 190, 4-(4-(4-(tetrahydrofuran-3-yloxy)-1H-pyrazolo[4,3-c]pyridin-3-yl)pyridin-2-yl)morpholine]  0.013 µM
34. c1ccc2ncc(-c3n[nH]c4ccnc(OC5CCOCC5)c34)cc2c1 [Example 150, 3-(4-(Tetrahydro-2H-pyran-4-yloxy)-1H-pyrazolo[4,3-c]pyridin-3-yl)quinoline]  0.012 µM
35. N#Cc1cccc(-c2cc(-c3n[nH]c4ccnc(OC5CCOCC5)c34)ccn2)c1 [Example 201, 3-(4-(4-(tetrahydro-2H-pyran-4-yloxy)-1H-pyrazolo[4,3-c]pyridin-3-yl)pyridin-2-yl) benzonitrile]  0.009 µM
36. CC(C)c1nc(-c2n[nH]c3ccnc(NC4CCOCC4)c23)n[nH]1 [Example 168, 3-(5-Isopropyl-4H-1,2,4-triazol-3-yl)-N-(tetrahydro-2H-pyran-4-yl)-1H-pyrazolo[4,3-c]pyridin-4-amine]  0.007 µM
